# Tests used:
# [1] = system: white clover (TRFRE, Trifolium repens); assay: Field trial United States, safening effect (visual injury) on white clover
# From the text: Field trials were established in multiple states in the United States to evaluate the safening effect of herbicide treatments to white clover (TRFRE, Trifolium repens) in existing pasture lands. Trials were designed as randomized complete blocks with four replicates. All trials were established with a minimum plot size of 3 meters (m) by 8 m (width×length).
# All herbicide treatments were applied post-emergence with applications made to the white clover. Herbicides were applied with backpack sprayers using carbon dioxide (CO2) as a propellant. The sprayers utilized flat fan spray nozzles calibrated to deliver a uniform spray pattern that provided thorough coverage of the foliage using a 187 L/ha spray volume. All treatments were applied with Activator 90 non-ionic surfactant at 0.25% v/v.
# The white clover was evaluated on the number of days after application (DAA) given in each table below. Injury to the white clover was assessed visually at several intervals after application as percent overall injury, compared to an untreated control plot. The overall injury assessments were based on visual ratings of growth inhibition, leaf deformity, epinasty, and chlorosis.
# [2] = system: annual yellow sweetclover (MEUIN, Melilotus indicus); assay: Field trial, postemergence herbicidal effect on pasture weeds; details: 30 DAA
# From the text: (§1) Trials were designed as randomized complete blocks with four replicates. All trials were established with a minimum plot size of 3 meters (m) by 8 m (width×length). All herbicide treatments were applied post-emergence with applications made to the undesirable vegetation. Herbicides were applied with backpack sprayers using carbon dioxide (CO2) as a propellant. The sprayers utilized flat fan spray nozzles calibrated to deliver a uniform spray pattern that provided thorough coverage of the foliage using a 187 L/ha spray volume. All treatments were applied with Activator 90 non-ionic surfactant at 0.25% v/v.
# (§2) The weeds were evaluated on the number of days after application (DAA) given in each table below. Injury to the weeds was assessed visually at several intervals after application as percent overall injury, compared to an untreated control plot. The overall injury assessments were based on visual ratings of growth inhibition, leaf deformity, epinasty, and chlorosis.
# [3] = system: mayweed chamomile (ANTCO, Anthemis cotula); assay: as above; details: 14 DAA
# From the text: as §1, §2
# [4] = system: goldenrod (SOOSS, Solidago sp.); assay: as above; details: 67 DAA
# From the text: as §1, §2
# [5] = system: Virginia pepperweed (LEPVI, Lepidium virginicum); assay: as above; details: 27 DAA
# From the text: as §1, §2
# [6] = system: hairy aster (ASTPI, Symphyotrichum pilosum); assay: as above
# From the text: as §1, §2
# [7] = system: bitter sneezeweed (HENAM, Helenium amarum); assay: as above
# From the text: as §1, §2
# [8] = system: brown knapweed (CENJA, Centaurea jacea); assay: as above
# From the text: as §1, §2
# [9] = system: annual marsh-elder (IVAAN, Iva annua); assay: as above
# From the text: as §1, §2
# [10] = system: tall buttercup (RANAC, Ranunculus acris); assay: as above
# From the text: as §1, §2
# [11] = system: sickle pod (CASOB, Senna obtusifolia); assay: as above
# From the text: as §1, §2
structure (smiles),measurement,setting,value
"O=C(O)COc1ccc(Cl)cc1Cl [2,4-D Choline, 2,4-D choline]",Visual Injury TRFRE Obs,"[1]; 0 DAA, 754 g ae/ha",30%
same,Visual Injury TRFRE Obs,"[1]; 0 DAA, 840 g ae/ha",6.5%
same,Visual Injury TRFRE Obs,"[1]; 7 DAA, 754 g ae/ha",4.8%
same,Visual Injury TRFRE Obs,"[1]; 7 DAA, 840 g ae/ha",10%
same,Visual Injury TRFRE Obs,"[1]; 14 DAA, 754 g ae/ha",86.2%
same,Visual Injury TRFRE Obs,"[1]; 14 DAA, 840 g ae/ha",15%
same,Visual Injury TRFRE Obs,"[1]; 21 DAA, 840 g ae/ha",11.2%
same,Visual Injury TRFRE Obs,"[1]; 28 DAA, 840 g ae/ha",10%
same,Visual Weed Control MEUIN Obs,[2]; 840 g ae/ha,20%
same,Visual Weed Control ANTCO Obs,[3]; 840 g ae/ha,30%
same,Visual Weed Control SOOS Obs,[4]; 840 g ae/ha,15%
same,Visual Weed Control LEPVI Obs,[5]; 840 g ae/ha,74%
same,Visual Weed Control ASTPI Obs,"[6]; 88 DAA, 840 g ae/ha",10%
same,Visual Weed Control ASTPI Obs,"[6]; 117 DAA, 840 g ae/ha",5%
same,Visual Weed Control HENAM Obs,"[7]; 30 DAA, 840 g ae/ha",74%
same,Visual Weed Control HENAM Obs,"[7]; 80 DAA, 840 g ae/ha",90%
same,Visual Weed Control CENJA Obs,"[8]; 67 DAA, 840 g ae/ha",0%
same,Visual Weed Control CENJA Obs,"[8]; 88 DAA, 840 g ae/ha",0%
same,Visual Weed Control CENJA Obs,"[8]; 117 DAA, 840 g ae/ha",0%
same,Visual Weed Control IVAAN Obs,"[9]; 41 DAA, 840 g ae/ha",38%
same,Visual Weed Control IVAAN Obs,"[9]; 56 DAA, 840 g ae/ha",38%
same,Visual Weed Control IVAAN Obs,"[9]; 75 DAA, 840 g ae/ha",30%
same,Visual Weed Control IVAAN Obs,"[9]; 83 DAA, 840 g ae/ha",35%
same,Visual Weed Control RANAC Obs,"[10]; 10 DAA, 750 g ae/ha",8%
same,Visual Weed Control RANAC Obs,"[10]; 40 DAA, 750 g ae/ha",28%
same,Visual Weed Control CASOB Obs,"[11]; 30 DAA, 840 g ae/ha",10%
same,Visual Weed Control CASOB Obs,"[11]; 45 DAA, 840 g ae/ha",10%
"COc1c(Cl)ccc(-c2nc(C(=O)OCc3ccccc3)c(Cl)c(N)c2F)c1F [Florpyrauxifen Benzyl, florpyrauxifen benzyl]",Visual Weed Control MEUIN Obs,[2]; 19 g ae/ha,10%
same,Visual Weed Control ANTCO Obs,[3]; 12.5 g ae/ha,10%
same,Visual Weed Control SOOS Obs,[4]; 9.5 g ae/ha,75%
same,Visual Weed Control LEPVI Obs,[5]; 9.5 g ae/ha,62%
same,Visual Weed Control LEPVI Obs,[5]; 12.5 g ae/ha,70%
same,Visual Weed Control LEPVI Obs,[5]; 19 g ae/ha,65%
same,Visual Weed Control ASTPI Obs,"[6]; 88 DAA, 9.5 g ae/ha",75%
same,Visual Weed Control ASTPI Obs,"[6]; 117 DAA, 9.5 g ae/ha",20%
same,Visual Weed Control HENAM Obs,"[7]; 30 DAA, 9.5 g ae/ha",60%
same,Visual Weed Control HENAM Obs,"[7]; 30 DAA, 12.5 g ae/ha",60%
same,Visual Weed Control HENAM Obs,"[7]; 80 DAA, 12.5 g ae/ha",40%
same,Visual Weed Control CENJA Obs,"[8]; 67 DAA, 19 g ae/ha",62%
same,Visual Weed Control CENJA Obs,"[8]; 88 DAA, 19 g ae/ha",62%
same,Visual Weed Control CENJA Obs,"[8]; 117 DAA, 9.5 g ae/ha",21%
same,Visual Weed Control CENJA Obs,"[8]; 117 DAA, 19 g ae/ha",31%
same,Visual Weed Control IVAAN Obs,"[9]; 41 DAA, 12.5 g ae/ha",38%
same,Visual Weed Control IVAAN Obs,"[9]; 41 DAA, 19 g ae/ha",50%
same,Visual Weed Control IVAAN Obs,"[9]; 56 DAA, 12.5 g ae/ha",42%
same,Visual Weed Control IVAAN Obs,"[9]; 75 DAA, 9.5 g ae/ha",25%
same,Visual Weed Control IVAAN Obs,"[9]; 75 DAA, 12.5 g ae/ha",48%
same,Visual Weed Control IVAAN Obs,"[9]; 83 DAA, 9.5 g ae/ha",30%
same,Visual Weed Control IVAAN Obs,"[9]; 83 DAA, 12.5 g ae/ha",48%
same,Visual Weed Control RANAC Obs,"[10]; 10 DAA, 9.44 g ae/ha",0%
same,Visual Weed Control RANAC Obs,"[10]; 40 DAA, 9.44 g ae/ha",0%
same,Visual Weed Control CASOB Obs,"[11]; 30 DAA, 12.5 g ae/ha",10%
same,Visual Weed Control CASOB Obs,"[11]; 30 DAA, 19 g ae/ha",10%
same,Visual Weed Control CASOB Obs,"[11]; 45 DAA, 12.5 g ae/ha",10%
same,Visual Weed Control CASOB Obs,"[11]; 45 DAA, 19 g ae/ha",10%

# — US20220030865A1, “COMPOSITIONS COMPRISING FLORPYRAUXIFEN THAT SAFEN WHITE CLOVER AND METHODS OF USE THEREOF” (CORTEVA AGRISCIENCE LLC, priority 2018, published 2022)
